Measured values as given in patent publication US20130231360A1, “Beta-Carbolines as Inhibitors of Haspin and DYRK Kinases” (THE BRIGHAM AND WOMEN S HOSPITAL, INC., priority 2010, published 2013).
Like-named read-outs stand apart in the source and are kept apart here.

Molecular target: T1, Haspin kinase (Homo sapiens, UniProt Q8TF76)
T1 construct: This full-length Haspin gene was cloned into the pMALc2E vector; made in house; host or cells: E. coli Rosetta 2(DE3)pLysS
T1 sequence (Q8TF76 1-798): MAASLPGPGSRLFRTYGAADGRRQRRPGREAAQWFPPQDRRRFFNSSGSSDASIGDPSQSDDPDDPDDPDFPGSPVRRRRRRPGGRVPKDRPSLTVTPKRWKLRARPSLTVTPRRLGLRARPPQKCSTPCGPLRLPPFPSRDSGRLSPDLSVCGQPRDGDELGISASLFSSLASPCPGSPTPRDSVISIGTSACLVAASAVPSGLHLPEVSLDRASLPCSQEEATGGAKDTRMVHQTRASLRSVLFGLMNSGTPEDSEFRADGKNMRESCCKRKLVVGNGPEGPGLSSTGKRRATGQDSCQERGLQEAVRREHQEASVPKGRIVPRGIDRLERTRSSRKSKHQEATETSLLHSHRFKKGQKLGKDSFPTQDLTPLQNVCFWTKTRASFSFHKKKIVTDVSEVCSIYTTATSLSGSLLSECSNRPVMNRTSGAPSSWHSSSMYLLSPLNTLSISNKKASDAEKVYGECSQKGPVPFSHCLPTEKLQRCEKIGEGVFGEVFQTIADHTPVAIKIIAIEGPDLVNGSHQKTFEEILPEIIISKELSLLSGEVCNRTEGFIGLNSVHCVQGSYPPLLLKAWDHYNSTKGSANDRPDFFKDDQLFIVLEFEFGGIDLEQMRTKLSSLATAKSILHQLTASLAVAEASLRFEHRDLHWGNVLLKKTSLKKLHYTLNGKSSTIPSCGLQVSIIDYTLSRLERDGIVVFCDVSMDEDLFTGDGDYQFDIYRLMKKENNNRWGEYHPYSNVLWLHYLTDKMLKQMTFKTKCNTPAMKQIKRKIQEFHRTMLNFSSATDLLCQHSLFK
Test: TR-FRET Haspin assay
Type: biochemical
Conditions: for Haspin kinase inhibitory activity (in words): high throughput screen by TR-FRET, hits revalidated in radiometric assay and confirmed in cellular assay
Source text: A synthetic codon-optimized human Haspin cDNA was made in vector pUC57 at GenScript Corporation (Piscataway, N.J.) to facilitate bacterial expression. This full-length Haspin gene was cloned into the pMALc2E vector (New England Biolabs, Ipswich, Mass.) using EcoR I and Sal I sites. Haspin was expressed and purified as an N-terminal MBP fusion protein from E. coli Rosetta™2(DE3)pLysS cells (Novagen, Madison, Wis.). A freshly transformed colony was used to initiate a small volume liquid culture in LB medium with 2 g/l glucose, 34 μg/ml chloramphenicol and 100 μg/ml ampicillin. This culture was used to inoculate a large volume of the same medium and grown until an absorbance at 600 nm of 0.5 was reached. Protein expression was induced by adding 0.3 mM isopropyl thiogalactoside and growth with shaking at room temperature for 14 hours. Affinity column chromatography was carried out using amylose resin following the manufacturer's instructions (New England Biolabs). The fusion protein was eluted in 50 mM Tris, pH 7.5, 200 mM NaCl, 10 mM maltose and dialyzed into 50 mM Tris, pH 7.5, 200 mM NaCl, 2 mM DTT and 50% glycerol. The purity and yield of intact fusion protein was determined by SDS-PAGE and Coomassie Blue staining, in comparison with known quantities of bovine serum albumin.
This peptide carried biotin on the side chain of the C-terminal lysine. Recombinant full-length human histone H3 was from New England Biolabs. ATP and Staurosporine were purchased from Sigma-Aldrich (St Louis, Mo.). Rabbit monoclonal anti-Histone H3T3ph antibody (clone JY325) from Millipore (Billerica, Mass.) was directly labeled by PerkinElmer (Waltham, Mass.) with LANCE Eu W1024. For indirect detection, LANCE Eu W1024 labeled anti-rabbit IgG antibody was used (PerkinElmer). Streptavidin conjugated to SureLight-Allophycocyanin (PerkinElmer) was used as the acceptor fluorophore.
A CRS CataLyst Express robotic arm (Thermo Fisher Scientific, Waltham, Mass.) and a Cybi-well 384 channel simultaneous pipettor (CyBio AG, Jena, Germany) were used to carry out the high throughput screening of a small molecule library. Kinase reactions were performed in 50 mM Tris, pH 7.5, 5 mM MgCl2, 1 mM DTT, 0.01% Brij-35 using Proxiplate 384 Plus white assay plates (PerkinElmer). […] The reaction was incubated for 10 minutes at room temperature. The reaction was terminated by addition of […] 50 mM EDTA, 2 nM Europium labeled anti-Histone H3T3ph antibody, 40 nM Streptavidin-APC. After a two hour incubation at room temperature, TR-FRET measurements were performed using a PHERAstar HTS microplate reader (BMG Labtech, Offenberg, Germany), and were expressed as ratios of acceptor fluorescence at 665 nm over donor fluorescence at 620 nm.
Data were analyzed using GraphPad Prism Version 4 (GraphPad Software Inc, La Jolla, Calif.). No inhibitor (“MAX”) and Staurosporine inhibitor (“MIN”) controls were used to calculate Z′ values and signal to background ratios during the high throughput screen. […] Km concentrations were also determined by non-linear regression.
To identify Haspin inhibitors by high throughput screening a homogeneous kinase assay based on time-resolved fluorescence resonance energy transfer (TR-FRET) was designed (Patnaik D., et al. J Biomol. Screen 13: 1025-1034, […].). This TR-FRET assay was utilized to screen a small molecule library of approximately 140,000 compounds. Primary hits were re-tested by TR-FRET assay using the peptide substrate and then revalidated by assaying the compounds in a radiometric assay using full-length Histone H3 as a protein substrate.
IC50 values were determined for inhibition of Haspin kinase utilizing the TR-FRET assay described in Example 3.

[1] = inhibition of Haspin kinase, TR-FRET assay of Example 3, MBP-Haspin, H3(1-21)-biotin peptide 0.1 μM, ATP 200 μM, read-out: IC50

| Compound | IC50 [1] [µM] | IC50 (read-out: IC50) [µM] | further results |
| --- | --- | --- | --- |
| Cc1nccc2c3ccc(O)cc3n(CCCCN)c12 [LDN-209986] | < 0.2 |  |  |
| Cc1nccc2c3ccc(NS(C)(=O)=O)cc3n(CCCCN)c12 [LDN-211899] | < 1 |  |  |
| COc1ccc2c3ccnc(C)c3n(CCCCN)c2c1Cl [LDN-211897] | < 1.2 |  |  |
| COc1ccc2c(c1)[nH]c1c(/C=C/c3ccccc3)nccc12 [LDN-57292] |  | < 2 | Haspin kinase inhibitory activity (in words): identified as a Haspin kinase inhibitors |
| c1ccc2c(c1)[nH]c1cnccc12 [LDN-14063] |  | > 10 |  |
| CNCCCCn1c2cc(OC)ccc2c2ccnc(C)c21 [LDN-211900] | < 0.4 |  |  |
| COc1cccc2c3ccnc(C)c3n(CCCCN)c12 [LDN-211893] | < 0.3 |  |  |
| COc1ccc2c(c1)[nH]c1ncccc12 [LDN-209919] |  | > 100 |  |
| COc1ccc2c(c1)[nH]c1ccccc12 [LDN-209934] |  | > 1 |  |
| harmol [LDN-21813, reference compound] | < 1.5 |  | Haspin kinase inhibitory activity (in words): identified as a Haspin kinase inhibitors |
| COc1ccc2c3ccnc(C)c3n(CCCC(N)c3ccccc3)c2c1 (centres unmarked) [LDN-211902] |  | < 0.2 |  |
| Cc1nccc2c1[nH]c1cc(OCCCCNC(=O)OC(C)(C)C)ccc12 [LDN-209920] |  | > 10 |  |
| Cc1nccc2c1[nH]c1cc(OCCCNC(=O)OC(C)(C)C)ccc12 [LDN-209921] |  | > 10 |  |
| COc1ccc2c(c1)[nH]c1c(-c3ccccc3)nccc12 [LDN-209952] |  | > 5 |  |
| CCc1nccc2c3ccc(OC)cc3n(CCCCN)c12 [LDN-209984] | < 0.2 |  |  |
| Cc1nccc2c3ccc(OC(C)(C)C)cc3n(CCCCN)c12 [LDN-211903] |  | < 5 |  |
| COc1ccc2c(c1)c1ccnc(C)c1n2CCCCN [LDN-211894] | < 3 |  |  |
| NCCCCn1c2cc(O)ccc2c2ccnc(C(F)(F)F)c21 [LDN-211998] | < 0.3 |  |  |
| COc1ccc2c3ccnc(C(C)C)c3n(CCCCN)c2c1 [LDN-209985] | < 0.6 |  |  |
| COc1ccc2c3ccncc3n(CCCCN)c2c1 [LDN-209983] | < 0.35 |  |  |
| COc1ccc2c3ccnc(C(F)(F)F)c3n(CCCCN)c2c1 [LDN-211898] | < 0.15 |  |  |
| COc1ccc2c(c1)[nH]c1c(C)nccc12 [LDN-97388, harmine, reference compound] |  |  | IC50: < 1 µM; Haspin kinase inhibitory activity (in words): identified as a Haspin kinase inhibitors |
| COc1ccc2c3ccnc(C)c3n(CCCCN)c2c1 [LDN-209953] | < 0.2 |  |  |
| Cc1nccc2c1[nH]c1cc(OCCCCN)ccc12 [LDN-209932] | < 2 |  |  |
| COc1ccc2c3ccnc(C)c3n(CCCCN)c2c1 [LDN-211901] | < 0.5 |  |  |
| COc1cccc2c1c1ccnc(C)c1n2CCCCN [LDN-211895] | < 3.5 |  |  |
| Cc1nccc2c1[nH]c1cc(OCCCN)ccc12 [LDN-209931] | < 1 |  |  |
| Cc1nccc2c3ccc(F)cc3n(CCCCN)c12 [LDN-209987] | < 0.6 |  |  |
| Cc1nccc2c3cc4c(cc3n(CCCCN)c12)OCO4 [LDN-211896] | < 0.7 |  |  |
